{
  "source": "patent US12030908B2",
  "about": "“Antimicrobial compounds, compositions, and uses thereof” (Lakewood Amedex, Inc., priority 2017, dated 2024)",
  "tested_on": "Escherichia coli (strain CFT073, TPPS 1041)",
  "experiment": "Initial urinary tract infection model in BALB/c mice, transurethral treatment (Example 9)",
  "format": "in vivo",
  "settings": "pH 3.5, 1025 mg/kg transurethral",
  "excerpt": "Female BALB/c mice (20-22 g) ordered from Envigo are acclimated to housing conditions and handled in accordance with Animal Use Protocol (AUP) number TP-08. Animals are fed irradiated Teklad Global 29 18 Rodent Diet and water ad libitum. Mice are housed 6/cage in static cages with irradiated ⅛″ Teklad corn cobbedding 7902 inside bioBubble® clean rooms that provide H.E.P.A filtered air into the bubble environment at 100 complete air changes per hour. The environment is controlled to a temperature range of 74°±4° F. and a humidity range of 30-70%. All procedures carried out in this experiment are conducted in compliance with the laws, regulations, and guidelines of the National Institutes of Health and with the approval of the TransPharm Preclinical Solutions Animal Care and Use Committee.\nA clinical isolate of Escherichia coli (strain CFT073, TPPS 1041) are procured from the University of Michigan.\nThe organism is grown overnight at 37° C. in ambient atmosphere on trypticase soy agar plates supplemented with 5% sheep blood cells. The culture is aseptically swabbed and transferred to tubes of trypticase soy broth. The optical density is determined at 600 nm. The culture is diluted to provide an inoculum of approximately 7.5 log10 CFU per mouse in a volume of 30 μL. Instillation of the bacterial challenge constituted time 0 hour for the study. Inoculum counts are estimated before inoculation by optical density and confirmed after inoculation by dilution and back counts.\nOne hour prior to bacterial challenge, water is removed from animal cages. […]\nThe primary endpoint used to assess progress of the infection is mean bacterial burden per gram of urinary bladder tissue. […] Colony forming units (CFU) are enumerated and the total bacterial burden per gram of urinary bladder tissue homogenate is calculated.\nThe geometric mean CFU, along with standard error of the mean (SEM), are calculated using Microsoft Excel and bar charts are prepared for the data using GraphPad Prism v. […]",
  "data": [
    {"smiles": "CCCCOP(=O)(O)OC[C@H]1O[C@@H](n2ccc(N)nc2=O)C[C@@H]1OP(=O)(O)OCCCC", "note": "[Nu-8, sodium ((2R,3S,5R)-5-(4-amino-2-oxopyrimidin-1(2H)-yl)-3-((butoxyoxidophosphor-yl)oxy)tetrahydrofuran-2-yl)methyl butyl phosphate]", "values": [
      {"measurement": "mean bladder CFU burden", "setting": "20 minutes post-treatment", "result": 2.9, "unit": "log10"},
      {"measurement": "mean bladder CFU burden", "setting": "60 minutes post-treatment", "result": 3.7, "unit": "log10 CFU"}
    ]}
  ]
}
